In US20210387966A1, “2-AMINO-N-HETEROARYL-NICOTINAMIDES AS NAV1.8 INHIBITORS” (Merck Sharp & Dohme Corp., priority 2018, published 2021):

Molecular target: T1, human Nav1.8 channels (Homo sapiens, UniProt Q9Y5Y9)
T1 construct: expressed in transfected cells
Assay: Nav1.8 Qube automated patch-clamp assay
Assay type: cell-based
Settings: human Nav1.8 stably expressed in HEK 293 cells; whole-cell voltage clamp, room temperature; resting or inactivated state not specified; read-out: IC50 values (nM) for Examples in the Nav1.8 Qube Assay
Procedure: Compounds were tested on human Nav1.8 and Nav1.5 channels stably expressed in human embryo kidney (HEK) 293 cells. Sodium current measurements on Qube® were conducted as follows: automated 384-well patch-clamp assays on the Qube® platform (Sophion Biosciences) were used to measure the inhibition of sodium flow through human Nav1.8 and Nav1.5 channels. Whole-cell voltage-clamp recordings were performed in QChips® (Sophion Biosciences) at room temperature. Nav1.8 current measurements on Qube® were obtained as follows: Nav1.8 currents were elicited with a 10 second 1 Hertz (Hz) pulse train from a holding potential of −90 millivolts (mV), delivered to the cells once per minute in the control condition (DMSO only) and after compound addition. The 1 hertz pulse train stimulation consisted of ten test pulses to 10 millivolt (mV) for 20 milliseconds (ms), each of which was followed by a 980 millisecond repolarization to −67 millivolts. At the end of the 10 second pulse train stimulation, a second hyperpolarization step to −100 millivolt (mV) was used to recover Nav1.8 from fast inactivation. The peak currents elicited by the 1st and 10th test pulses were used to determine IC50 values for resting inhibition and inactivated state inhibition. Nav1.5 current measurements on Qube® were obtained as follows: Nav1.5 currents were elicited with a 20 second 3 Hertz pulse train in the control condition (DMSO only) and after compound addition. The pulse train consisted of sixty 20 millisecond test pulses to 0 millivolt from a holding potential of −80 millivolt (mV). The average peak currents elicited by the last 3 test pulses were used to determine IC50 values for Nav1.5 inhibition.
The following buffers were used for the Qube® recordings: External buffer for Nav1.8 Qube® recording: 150 NaCl, 2 CaCl2, 5 KCl, 1 Mg Cl2, 10 HEPES, 12 Dextrose; External buffer for Qube® Nav1.5 recording: 120 N-Methyl-D-Glucamine, 40 NaCl, 1 KCl, 2.7 CaCl2, 5 HEPES, 0.5 MgCl2: and Internal buffer for Qube® recording: 120 CsF, 30 CsCl, 10 EGTA, 5 HEPES, 5 NaF, 2 MgCl2.
For all Qube® experiments offline analysis was used to determine percent inhibition as a function of drug concentration. IC50 values were determined by fitting to the Hill equation.

T1 sequence (Q9Y5Y9 whole entry): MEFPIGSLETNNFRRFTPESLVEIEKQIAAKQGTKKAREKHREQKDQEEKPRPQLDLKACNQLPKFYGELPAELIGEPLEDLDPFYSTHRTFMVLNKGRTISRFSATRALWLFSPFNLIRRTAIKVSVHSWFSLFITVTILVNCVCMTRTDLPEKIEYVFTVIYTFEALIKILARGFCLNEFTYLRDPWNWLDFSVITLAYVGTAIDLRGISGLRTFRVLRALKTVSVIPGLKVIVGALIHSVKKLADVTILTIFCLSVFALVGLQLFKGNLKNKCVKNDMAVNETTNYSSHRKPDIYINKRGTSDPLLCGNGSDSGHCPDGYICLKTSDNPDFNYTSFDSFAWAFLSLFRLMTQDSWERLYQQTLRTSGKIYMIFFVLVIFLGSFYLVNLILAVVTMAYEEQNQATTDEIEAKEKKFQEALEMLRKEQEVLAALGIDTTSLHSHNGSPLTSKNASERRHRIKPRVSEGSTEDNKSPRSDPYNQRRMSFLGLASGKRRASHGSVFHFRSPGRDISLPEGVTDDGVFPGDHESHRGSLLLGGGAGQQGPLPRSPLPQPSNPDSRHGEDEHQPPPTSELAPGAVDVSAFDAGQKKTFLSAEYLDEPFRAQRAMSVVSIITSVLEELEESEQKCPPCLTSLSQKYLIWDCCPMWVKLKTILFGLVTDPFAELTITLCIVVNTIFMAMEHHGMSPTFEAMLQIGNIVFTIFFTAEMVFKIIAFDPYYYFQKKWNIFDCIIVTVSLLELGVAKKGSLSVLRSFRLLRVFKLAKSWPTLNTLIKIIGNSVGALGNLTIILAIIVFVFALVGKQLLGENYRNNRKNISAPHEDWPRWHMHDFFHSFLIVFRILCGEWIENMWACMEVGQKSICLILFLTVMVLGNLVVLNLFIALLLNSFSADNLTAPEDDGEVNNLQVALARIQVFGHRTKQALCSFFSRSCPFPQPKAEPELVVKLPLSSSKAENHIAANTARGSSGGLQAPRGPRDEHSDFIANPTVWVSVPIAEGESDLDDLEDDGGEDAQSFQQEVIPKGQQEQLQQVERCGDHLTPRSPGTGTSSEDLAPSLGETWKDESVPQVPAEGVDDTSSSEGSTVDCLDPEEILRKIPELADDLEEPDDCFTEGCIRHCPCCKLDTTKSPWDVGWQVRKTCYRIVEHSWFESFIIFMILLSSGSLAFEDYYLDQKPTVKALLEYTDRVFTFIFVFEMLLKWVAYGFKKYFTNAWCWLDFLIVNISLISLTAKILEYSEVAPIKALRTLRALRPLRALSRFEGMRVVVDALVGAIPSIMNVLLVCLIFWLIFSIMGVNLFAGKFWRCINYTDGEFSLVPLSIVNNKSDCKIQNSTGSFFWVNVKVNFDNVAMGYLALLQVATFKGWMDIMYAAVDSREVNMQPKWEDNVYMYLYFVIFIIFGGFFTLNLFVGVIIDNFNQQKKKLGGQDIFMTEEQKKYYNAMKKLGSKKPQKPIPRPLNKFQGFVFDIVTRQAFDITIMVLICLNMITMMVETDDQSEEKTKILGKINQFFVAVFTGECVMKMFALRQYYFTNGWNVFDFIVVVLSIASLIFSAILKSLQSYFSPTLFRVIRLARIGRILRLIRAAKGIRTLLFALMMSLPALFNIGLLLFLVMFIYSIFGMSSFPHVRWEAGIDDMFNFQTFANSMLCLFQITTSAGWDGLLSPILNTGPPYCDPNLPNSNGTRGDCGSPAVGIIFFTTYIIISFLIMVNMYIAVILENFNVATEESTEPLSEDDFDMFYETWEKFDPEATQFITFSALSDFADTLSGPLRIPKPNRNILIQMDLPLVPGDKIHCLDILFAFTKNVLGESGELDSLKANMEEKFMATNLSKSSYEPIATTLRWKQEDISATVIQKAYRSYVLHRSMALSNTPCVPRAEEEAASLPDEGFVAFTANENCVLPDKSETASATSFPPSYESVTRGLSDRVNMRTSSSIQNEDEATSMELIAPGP

| IC50 [nM] | Compound |
| --- | --- |
| 3.9 | C[C@H]1CN(c2ncc(C(F)(F)F)cc2C(=O)Nc2ccnc(S(N)(=O)=O)c2)CCC1(F)F (single isomer, unassigned) [Example 47] |
| 12 | C[C@@H]1CN(c2ncc(C(F)(F)F)cc2C(=O)Nc2ccnc(S(N)(=O)=O)c2)CCC1(F)F (single isomer, unassigned) [Example 48] |
| 1.4 | CC1CN(c2ncc(C(F)(F)F)cc2C(=O)Nc2ccnc(S(N)(=O)=O)c2)CCC1(Cl)Cl (single isomer, unassigned) [Example 49, (R or S)-2-(4,4-dichloro-3-methylpiperidin-1-yl)-N-(2-sulfamoylpyridin-4-yl)-5-(trifluoromethy)nicotinamide] |
| 14 | CC1CN(c2ncc(C(F)(F)F)cc2C(=O)Nc2ccnc(S(N)(=O)=O)c2)CCC1(Cl)Cl (single isomer, unassigned) [Example 50, (S or R)-2-(4,4-dichloro-3-methylpiperidin-1-yl)-N-(2-sulfamoylpyridin-4-yl)-5-(trifluoromethyl)nicotinamide] |
| 2.1 | Cc1nc(N2CCC(F)(F)C(C)C2)c(C(=O)Nc2ccnc(S(N)(=O)=O)c2)cc1Cl (single isomer, unassigned) [Example 54, (S or R)-5-chloro-2-(4,4-difluoro-3-methylpiperidin-1-yl)-6-methyl-N-(2-sulfamoylpyridin-4-yl)nicotinamide] |
| 1.4 | Cc1nc(N2CCC(F)(F)C(C)C2)c(C(=O)Nc2ccnc(S(N)(=O)=O)c2)cc1Cl (single isomer, unassigned) [Example 55, (S or R)-5-chloro-2-(4,4-difluoro-3-methylpiperidin-1-yl)-6-methyl-N-(2-sulfamoylpyridin-4-yl)nicotinamide] |
| 9.1 | CC1CCCN(c2ncc(C(F)(F)F)cc2C(=O)Nc2ccnc(S(N)(=O)=O)c2)C1 (single isomer, unassigned) [Example 56, (S or R)-2-(3-methylpiperidin-1-yl)-N-(2-sulfamoylpyridin-4-yl)-5-(trifluoromethyl)nicotinamide] |
| 31 | CC1CCCN(c2ncc(C(F)(F)F)cc2C(=O)Nc2ccnc(S(N)(=O)=O)c2)C1 (single isomer, unassigned) [Example 57, (R or S)-2-(3-methylpiperidin-1-yl)-N-(2-sulfamoylpyridin-4-yl)-5-(trifluoromethyl)nicotinamide] |
| 10 | NS(=O)(=O)c1cc(NC(=O)c2cc(C(F)(F)F)cnc2N2CC3CCC3(C(F)(F)F)C2)ccn1 (single isomer, unassigned) [Example 58, N-(2-sulfamoyl-4-pyridyl)-5-(trifluoromethyl)-2-[(1S,5S or 1R,5R)-1-(trifluoromethyl)-3-azabicyclo[3.2.0]heptan-3-yl]pyridin-3-carboxamide] |
| 116 | NS(=O)(=O)c1cc(NC(=O)c2cc(C(F)(F)F)cnc2N2CC3CCC3(C(F)(F)F)C2)ccn1 (single isomer, unassigned) [Example 59, N-(2-sulfamoyl-4-pyridyl)-5-(trifluoromethyl)-2-[(1R,5R or 1S,5S)-1-(trifluoromethyl)-3-azabicyclo[3.2.0]heptan-3-yl]pyridine-3-carboxamide] |
| 15 | CC12CCN(c3ncc(C(F)(F)F)cc3C(=O)Nc3ccnc(S(N)(=O)=O)c3)CC1C2(F)F (single isomer, unassigned) [Example 61, 2-[(1S,6S or 1R,6R)-7,7-difluoro-6-methyl-3-azabicyclo[4.1.0]heptan-3-yl]-N-(2-sulfamoyl-4-pyridyl)-5-(trifluoromethyl)pyridine-3-carboxamide] |
| 105 | CC12CCN(c3ncc(C(F)(F)F)cc3C(=O)Nc3ccnc(S(N)(=O)=O)c3)CC1C2(F)F (single isomer, unassigned) [Example 62, 2-[(1R,6R or 1S,6S)-7,7-difluoro-6-methyl-3-azabicyclo[4.1.0]heptan-3-yl]-N-(2-sulfamoyl-4-pyridyl)-5-(trifluoromethyl)pyridine-3-carboxamide] |
| 23 | NS(=O)(=O)c1cc(NC(=O)c2cc(C(F)(F)F)cnc2N2CC3CC(F)(F)C3C2)ccn1 (single isomer, unassigned) [Example 64, 2-((1R,2S or 1S,5R)-6,6-difluoro-3-azabicyclo[3.2.0]heptan-3-yl)-N-(2-sulfamoylpyridin-4-yl)-5-(trifluoromethyl)nicotinamide] |
| 94 | NS(=O)(=O)c1cc(NC(=O)c2cc(C(F)(F)F)cnc2N2CC3CC(F)(F)C3C2)ccn1 (single isomer, unassigned) [Example 65, 2-((1S,5R or 1R,5S)-6,6-difluoro-3-azabicyclo[3.2.0]heptan-3-yl)-N-(2-sulfamoylpyridin-4-yl)-5-(trifluoromethyl)nicotinamide] |
| 88 | NS(=O)(=O)c1cc(NC(=O)c2cc(C(F)(F)F)cnc2N2CCCC3(C2)CC3(F)F)ccn1 (single isomer, unassigned) [Example 66, (R of S)-2-(1,1-difluoro-5-azaspiro[2.5]octan-5-yl)-N-(2-sulfamoylpyridin-4-yl)-5-(trifluoromethyl)nicotinamide] |
| 25 | NS(=O)(=O)c1cc(NC(=O)c2cc(C(F)(F)F)cnc2N2CCCC3(C2)CC3(F)F)ccn1 (single isomer, unassigned) [Example 67, (S or R)-2-(1,1-difluoro-5-azaspiro[2.5]octan-5-yl)-N-(2-sulfamoylpyridin-4-yl)-5-(trifluoromethyl)nicotinamide] |
| 82 | NS(=O)(=O)c1cc(NC(=O)c2cc(C(F)(F)F)cnc2N2CCC3C(C2)C3(F)F)ccn1 (single isomer, unassigned) [Example 69, 2-((1S,6S or 1R,6R)-7,7-difluoro-3-azabicyclo[4.1.0]heptan-3-yl)-N-(2-sulfamoylpyridin-4-yl)-5-(trifluoromethyl)nicotinamide] |
| 41 | NS(=O)(=O)c1cc(NC(=O)c2cc(C(F)(F)F)cnc2N2CCC3C(C2)C3(F)F)ccn1 (single isomer, unassigned) [Example 70, 2-((1R,6R or 1S,6S)-7,7-difluoro-3-azabicyclo[4.1.0]heptan-3-yl)-N-(2-sulfamoylpyridin-4-yl)-5-(trifluoromethyl)nicotinamide] |
| 60 | NS(=O)(=O)c1cc(NC(=O)c2cc(C(F)(F)F)cnc2N2CC3CC2CC3(F)F)ccn1 (single isomer, unassigned) [Example 71, 2-[(1R,4R or 1S,4S)-5,5-difluoro-2-azabicyclo[2.2.1]heptan-2-yl]-N-(2-sulfamoyl-4-pyridyl)-5-(trifluoromethyl)pyridine-3-carboxamide] |
| 714 | NS(=O)(=O)c1cc(NC(=O)c2cc(C(F)(F)F)cnc2N2CC3CC2CC3(F)F)ccn1 (single isomer, unassigned) [Example 72, 2-[(1S,4S or 1R,4R)-5,5-difluoro-2-azabicyclo[2.2.1]heptan-2-yl]-N-(2-sulfamoyl-4-pyridyl)-5-(trifluoromethyl)pyridine-3-carboxamide] |
| 225 | CC1CC(F)(F)CCN1c1ncc(C(F)(F)F)cc1C(=O)Nc1ccnc(S(N)(=O)=O)c1 (single isomer, unassigned) [Example 73, (R or S)-2-(4,4-difluoro-2-methylpiperidin-1-yl)-N-(2-sulfamoylpyridin-4-yl)-5-(trifluoromethyl)nicotinamide] |
| 319 | CC1CC(F)(F)CCN1c1ncc(C(F)(F)F)cc1C(=O)Nc1ccnc(S(N)(=O)=O)c1 (single isomer, unassigned) [Example 74, (S or R)-2-(4,4-difluoro-2-methylpiperidin-1-yl)-N-(2-sulfamoylpyridin-4-yl)-5-(trifluoromethyl)nicotinamide] |
| 32 | Cc1nc(N2CCOC(C(F)F)CC2)c(C(=O)Nc2ccnc(S(N)(=O)=O)c2)cc1Cl (single isomer, unassigned) [Example 116, 5-chloro-2-[(7R or 7S)-7-(difluoromethyl)-1,4-oxazepan-4-yl]-6-methyl-N-(2-sulfamoylpyridin-4-yl)pyridine-3-carboxamide] |
| 18 | Cc1nc(N2CCOC(C(F)F)CC2)c(C(=O)Nc2ccnc(S(N)(=O)=O)c2)cc1Cl (single isomer, unassigned) [Example 117, 5-chloro-2-[(7S or 7R)-7-(difluoromethyl)-1,4-oxazepan-4-yl]-6-methyl-N-(2-sulfamoylpyridin-4-yl)pyridine-3-carboxamide] |
| 54 | NS(=O)(=O)c1cc(NC(=O)c2cc(C(F)(F)F)cnc2N2CCOC(C(F)(F)F)CC2)ccn1 (single isomer, unassigned) [Example 118, (R or S)-N-(2-sulfamoylpyridin-4-yl)-5-(trifluoromethyl)-2-(7-(trifluoromethyl)-1,4-oxazepan-4-yl)nicotinamide] |
